Laboratory results as given in patent publication US20080311221A1, “LEWIS ACID AND OIL-SOLUBLE HYBRID PESTICIDE CONCENTRATE THAT SPONTANEOUSLY FORMS A WATER-BASED MICROEMULSION” (PBI/Gordon Corporation, priority 2007, published 2008).

Tests used:
[1] = Standard accelerated chemical stability test, HPLC of each active, 40° C. for thirty days; type: physicochemical; conditions: for Final percent concentration of active in concentrate: HPLC after 40° C. for thirty days, sealed container; for Initial percent concentration of active in concentrate: HPLC before storage, concentrate of Example 4 (so in the source); for % Diff: final vs initial, 40° C. for thirty days
Experimental: Another sample of the concentrate Example 4 was subjected to a standard accelerated chemical stability test by conducting an HPLC analysis of each of the active ingredients to determine the percent concentration of each active in the concentrate. The sample was then placed in a sealed container and stored at 40° C. for thirty days. An HPLC analysis was repeated following the extended storage period. All are within accepted limits as established by U.S. EPA for pesticidal products.

[2] = Ambient storage stability test, HPLC, 25° C. for two and one-half months; type: physicochemical; conditions: for Final percent concentration of active in concentrate: HPLC after 25° C. for two and one-half months; for Initial percent concentration of active in concentrate: HPLC before storage, concentrate of Example 4 (so in the source); for % Diff: final vs initial, 25° C. for two and one-half months
Experimental: A further sample of the concentrate of Example 4 was tested under ambient storage conditions at 25° C. for two and one-half months. The sample was initially subjected to an HPLC test, and then again tested at the end of the storage period.

Structure (SMILES): O=C(O)COc1ccc(Cl)cc1Cl [2,4-D]
- Final percent concentration of active in concentrate [1]: 8.987%
- Initial percent concentration of active in concentrate [1]: 9.203%
- % Diff [1]: −2.35%
- Final percent concentration of active in concentrate [2]: 9.154%
- Initial percent concentration of active in concentrate [2]: 9.203%
- % Diff [2]: −0.53%

Structure (SMILES): COc1c(Cl)ccc(Cl)c1C(=O)O [Dicamba]
- Final percent concentration of active in concentrate [1]: 1.091%
- Initial percent concentration of active in concentrate [1]: 1.141%
- % Diff [1]: −4.38%
- Final percent concentration of active in concentrate [2]: 0.933%
- Initial percent concentration of active in concentrate [2]: 0.946%
- % Diff [2]: −1.37%

Structure (SMILES): CSC(=O)c1c(C(F)F)nc(C(F)(F)F)c(C(=O)SC)c1CC(C)C [Dithiopyr]
- Final percent concentration of active in concentrate [1]: 1.909%
- Initial percent concentration of active in concentrate [1]: 1.977%
- % Diff [1]: −3.44%
- Final percent concentration of active in concentrate [2]: 1.921%
- Initial percent concentration of active in concentrate [2]: 1.977%
- % Diff [2]: −2.83%

Structure (SMILES): O=C(O)c1c(Cl)ccc2cc(Cl)cnc12 [Quinclorac]
- Final percent concentration of active in concentrate [1]: 1.876%
- Initial percent concentration of active in concentrate [1]: 1.91%
- % Diff [1]: −1.78%
- Final percent concentration of active in concentrate [2]: 1.929%
- Initial percent concentration of active in concentrate [2]: 1.91%
- % Diff [2]: 0.99%

Structure (SMILES): Cc1nn(-c2cc(NS(C)(=O)=O)c(Cl)cc2Cl)c(=O)n1C(F)F [Sulfentrazone]
- Final percent concentration of active in concentrate [1]: 0.363%
- Initial percent concentration of active in concentrate [1]: 0.379%
- % Diff [1]: −4.22%
- Final percent concentration of active in concentrate [2]: 0.380%
- Initial percent concentration of active in concentrate [2]: 0.379%
- % Diff [2]: 0.26%
